This note sets out measurements from patent publication US20090252754A1, “Vaccines containing the hiv tat protein as an adjuvant for the enhancement of cytotoxic t-cell responses” (priority 2003, published 2009).

In experiment [1] the test system is proteasome subunits (α2, LMP2, LMP7, MECL1) in Jurkat cells. Nature of the experiment: Western blot of proteasome subunits in Jurkat cells expressing or treated with Tat, Tat mutants or Tat peptides. In kind it is cell-based, human. The following applies: Jurkat cells treated for 24 h with 0.1 μg/ml. On the procedure: Jurkat T cells expressing Tat or mutated Tat (referred to as Tat22, wherein a Cys at position 22 is mutated) have previously been described (1). Cells were cultured in a medium supplemented with 800 μg/ml neomycin (Sigma, St. Louise, […].).
Cells were lysed with glass beads as previously described (4). Supernatants were ultracentrifuged for 1 h at 100,000 g and loaded into an affinity column containing a matrix derivatised with the MCP21 mAb specific for the α2 subunit of the proteasome (Affinity, Exeter, UK). Proteasomes were eluted with 25 mM Tris-HCl pH 7.5 containing 2 M NaCl, and 0.5 ml fractions were collected. Homogeneity of the eluted material was confirmed by analysis of an aliquot by SDS 12% PAGE and Coomassie blue staining of the gel. Fractions containing proteasomes were combined and dialysed against 25 mM Tris-HCl pH 7.5. Protein concentration was determined using the BCA method (Pierce Chemical, Rockford, Ill.).
Equal amounts of proteins, or equal amounts of purified proteasomes, were loaded on a 12% SDS-PAGE and electro-blotted onto Protran nitrocellulose membranes (Schleicher & Schuell, Keene, Hampshire, USA). Blots were probed with Abs specific for α2, LMP2 LMP7, MECL1, and PA28α subunits (Affinity), and developed by enhanced chemi-luminescence (ECL, Amersham Pharmacia Biotech, Uppsala, SW).

A further experiment deals with HIV-1 Env peptide pools. Nature of the experiment: Env-specific IFNγ Elispot on splenocytes of immunized mice. It is filed as in vivo, BALB/c mice. On the procedure: C57BL/6 mice (H-2^b) (Harlan Nossan, Udine, I) were immunized subcutaneously, in a single site in the back, with 25 μg of ovalbumin (Sigma) alone or in combination with native monomeric biologically active Tat protein (5 and 10 μg, respectively) in Freund's adjuvant (CFA for the first injection, and IFA for subsequent injections). BALB/c mice (H-2^d) (Harlan, Udine, Italy) were immunized subcutaneously, in a single site in the back, with 5 μg of HIV-1 Gag or Env proteins alone or in combination with 5 μg of native monomeric biologically active Tat protein or with the mutant Tatcys22 protein in Freund's adjuvant or in Alum. Each group was composed of 5 animals. Immunogens were given subcutaneously in 100 μl, at days 1, 14 and 28. Mice were sacrificed 10 days after the last boost (day 38). […]
Splenocytes were purified from spleens squeezed on filters (Cell Strainer, 70 μm, Nylon, Becton Dickinson). […] Cellular responses were also measured after in vitro re-stimulation. […]
Elispot (IFN-γ) was carried out using a commercially available kit provided by Becton Dickinson (murine IFNgamma ELISPOT Set; #551083), according to manufacturer's instructions. […] The spots were read using an Elispot reader (Elivis, Germany). The results are expressed as neat number of spot forming units (SFU)/10^6 cells: [mean number SFU of peptide treated wells minus mean number SFU of the negative control]. […]

For experiment [2], the system named is ovalbumin epitopes SII, KVV, CFD on EL4 cells. Nature of the experiment: Ova-specific CTL responses in vaccinated mice (cytotoxicity against peptide-pulsed EL4 cells). It is filed as in vivo, C57BL/6 mice. As to conditions: fresh splenocytes; 25 μg ovalbumin alone or with 5 and 10 μg Tat, s.c., Freund's adjuvant. On the procedure:
Seven- to eight-week old female C57BL/6 mice (H-2^b) (Nossan) were injected with 25 μg ovalbumin (Sigma, St. Louis, Mo.) alone or in combination with native monomeric biologically active Tat protein (5 and 10 μg) and resuspended in degassed sterile PBS in Freund's adjuvant (CFA for the first injection, and IFA for subsequent injections). Control mice were injected with PBS alone in Freund's adjuvant. Samples (100 μl) were given by subcutaneous (s.c.) injection in one site in the back. Each experimental group consisted of five mice, and the experiment was repeated twice. Mice were boosted at day 24. Two weeks after the last injection, animals were anaesthetised i.p., as described above, and sacrificed to collect spleens. Mononuclear cells from individual spleens were purified as described above, pooled and tested in cytotoxic assay against peptide-pulsed EL4 cells.
C57BL/6 mice (H-2^b) (Harlan Nossan, Udine, I) were immunized subcutaneously, in a single site in the back, with 25 μg of ovalbumin (Sigma) alone or in combination with native monomeric biologically active Tat protein (5 and 10 μg, respectively) in Freund's adjuvant (CFA for the first injection, and IFA for subsequent injections). BALB/c mice (H-2^d) (Harlan, Udine, Italy) were immunized subcutaneously, in a single site in the back, with 5 μg of HIV-1 Gag or Env proteins alone or in combination with 5 μg of native monomeric biologically active Tat protein or with the mutant Tatcys22 protein in Freund's adjuvant or in Alum. Each group was composed of 5 animals. Immunogens were given subcutaneously in 100 μl, at days 1, 14 and 28. Mice were sacrificed 10 days after the last boost (day 38). During the course of the experiments, animals were controlled twice a week at the site of injection and for their general conditions (such as liveliness, food intake, vitality, weight, motility, sheen of hair). No signs of local nor systemic adverse reactions were ever observed in mice receiving the immunogens as compared to control or untreated mice. Animal use was according to European and institutional guidelines.

In the case of “1-38: peptide covering amino acids 1-38 of the wild-type sequence of Tat (MEPVDPRLEPWKHPGSQPKTACTNCYCKKCCFHCQVCF; UniProt P04608 1-38, looked up, fragment)”, the “LMP2 expression in total cell lysates” value in experiment [1] was “no discernable effect”. Take “21-58: peptide covering amino acids 21-58 of the wild-type sequence of Tat (ACTNCYCKKCCFHCQVCFITKALGISYGRKKRRQRRRA; UniProt P04608 21-58, looked up, fragment)”: the “LMP2 expression in total cell lysates” value in experiment [1] is on record as “no discernable effect”. Take “Env: HIV-1 Env protein (gp120 SF162, SEQ ID NO 267) from NIH AIDS Reagent Program”: the “response of fresh splenocytes to Env-derived peptide pools” value with HIV-1 Env peptide pools (fresh splenocytes, IFN-γ Elispot (data not shown)) is reported as “did not respond”. Besides, the “number of Env-derived peptide pools responded to” value with HIV-1 Env peptide pools (vaccinated BALB/c mice) was 8. As to ovalbumin, in experiment [2], the “recognition of EL4 target cells pulsed with cryptic CFD epitope” value is listed as “did not recognise”, the “recognition of EL4 target cells pulsed with immunodominant SII epitope” value was “recognised” and the “recognition of EL4 target cells pulsed with subdominant KVV epitope” value is on record as “did not recognise”.

With “47-86: peptide of amino acids 47-86 of wild-type Tat (SEQ ID NO 285) (YGRKKRRQRRRPPQGSQTHQVSLSKQPTSQSRGDPTGPKE; Human immunodeficiency virus)”, the “LMP2 expression in total cell lysates” value in experiment [1] is recorded as “induced down-regulation”.
